Some results are limits rather than exact numbers.

The assay deals with VEGFR2, unphosphorylated (Homo sapiens (Human), UniProt P35968). As to the kind of experiment: VEGFR ADP GLO Assay. Format: biochemical.
VEGFR2, unphosphorylated, sequence (P35968 20-1356): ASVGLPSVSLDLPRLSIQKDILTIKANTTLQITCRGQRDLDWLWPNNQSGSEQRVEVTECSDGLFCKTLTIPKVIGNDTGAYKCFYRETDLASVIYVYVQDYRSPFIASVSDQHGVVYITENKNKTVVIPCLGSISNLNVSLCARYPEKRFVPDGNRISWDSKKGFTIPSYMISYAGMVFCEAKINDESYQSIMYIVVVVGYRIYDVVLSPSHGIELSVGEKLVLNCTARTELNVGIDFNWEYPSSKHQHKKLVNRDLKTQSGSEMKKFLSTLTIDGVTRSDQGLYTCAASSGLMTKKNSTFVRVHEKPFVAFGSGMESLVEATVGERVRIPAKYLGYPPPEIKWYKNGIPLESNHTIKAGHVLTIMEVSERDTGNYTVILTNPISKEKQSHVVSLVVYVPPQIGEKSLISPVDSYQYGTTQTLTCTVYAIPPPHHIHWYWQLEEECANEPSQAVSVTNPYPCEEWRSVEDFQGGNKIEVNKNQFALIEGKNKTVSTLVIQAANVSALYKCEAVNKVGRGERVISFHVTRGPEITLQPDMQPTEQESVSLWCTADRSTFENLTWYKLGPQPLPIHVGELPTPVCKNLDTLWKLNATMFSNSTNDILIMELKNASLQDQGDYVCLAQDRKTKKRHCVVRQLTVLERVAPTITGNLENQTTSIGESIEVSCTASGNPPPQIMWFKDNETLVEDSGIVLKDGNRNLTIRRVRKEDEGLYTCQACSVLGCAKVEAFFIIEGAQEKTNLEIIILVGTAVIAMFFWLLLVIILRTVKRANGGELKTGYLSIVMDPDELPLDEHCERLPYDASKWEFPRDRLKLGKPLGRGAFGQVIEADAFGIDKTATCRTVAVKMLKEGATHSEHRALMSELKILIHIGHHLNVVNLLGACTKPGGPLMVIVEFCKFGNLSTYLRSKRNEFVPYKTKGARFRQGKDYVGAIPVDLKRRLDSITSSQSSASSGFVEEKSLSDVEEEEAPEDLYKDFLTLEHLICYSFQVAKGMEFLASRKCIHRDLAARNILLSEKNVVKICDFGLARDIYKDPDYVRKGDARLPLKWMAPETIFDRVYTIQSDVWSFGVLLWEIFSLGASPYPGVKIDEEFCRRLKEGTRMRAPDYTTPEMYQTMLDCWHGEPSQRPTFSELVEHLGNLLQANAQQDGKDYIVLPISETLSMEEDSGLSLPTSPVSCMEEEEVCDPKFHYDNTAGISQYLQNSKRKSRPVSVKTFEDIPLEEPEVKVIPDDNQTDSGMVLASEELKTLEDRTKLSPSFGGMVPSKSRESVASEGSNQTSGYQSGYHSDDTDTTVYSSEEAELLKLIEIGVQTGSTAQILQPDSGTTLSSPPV
For the molecule `Cc1ncc(C(=O)NCCN2CC3(CCC3)C2)cc1NC(=O)c1cnn2cc(-c3cnn(C)c3)sc12` [Example 124, N-(5-((2-(2-azaspiro[3.3]heptan-2-yl)ethyl)carbamoyl)-2-methylpyridin-3-yl)-2-(1-methyl-1H-pyrazol-4-yl)pyrazolo[5,1-b]thiazole-7-carboxamide], the IC50 (as a rule, the concentration needed to halve the response being measured) was more than 7.5 µM.

In the case of `COCCN(CCNC(=O)c1cnc(C)c(NC(=O)c2cnn3cc(-c4cnn(C)c4)sc23)c1)C1CCC1` [Example 115, N-(5-((2-(cyclobutyl(2-methoxyethyl)amino)ethyl)carbamoyl)-2-methylpyridin-3-yl)-2-(1-methyl-1H-pyrazol-4-yl)pyrazolo[5,1-b]thiazole-7-carboxamide], the IC50 is more than 7.5 µM.

Molecule `Cc1ncc(C(=O)NCCN2CCOCC23CCC3)cc1NC(=O)c1cnn2cc(-c3cnn(C)c3)sc12` [Example 117, N-(5-((2-(8-oxa-5-azaspiro[3.5]nonan-5-yl)ethyl)carbamoyl)-2-methylpyridin-3-yl)-2-(1-methyl-1H-pyrazol-4-yl)pyrazolo[5,1-b]thiazole-7-carboxamide] showed an IC50 of more than 7.5 µM.

`COCCn1cc(-c2cn3ncc(C(=O)Nc4cc(C(=O)NCCN5CCC(F)(F)C5)cnc4C)c3s2)cn1` [Example 167, N-(5-((2-(3,3-difluoropyrrolidin-1-yl)ethyl)carbamoyl)-2-methylpyridin-3-yl)-2-(1-(2-methoxyethyl)-1H-pyrazol-4-yl)pyrazolo[5,1-b]thiazole-7-carboxamide] displayed an IC50 of more than 7.5 µM.

On to `COCCn1cc(-c2cn3ncc(C(=O)Nc4cc(NC(=O)CCN5CCC56CCC6)cnc4C)c3s2)cn1` [Example 95, N-(5-(3-(1-azaspiro[3.3]heptan-1-yl)propanamido)-2-methylpyridin-3-yl)-2-(1-(2-methoxyethyl)-1H-pyrazol-4-yl)pyrazolo[5,1-b]thiazole-7-carboxamide], for which the IC50 was more than 7.5 µM.

`Cc1ncc(C(=O)NCCN2CCC3(CC3)C2)cc1NC(=O)c1cnn2cc(-c3cn(C)nc3C)sc12` [Example 177, N-(5-((2-(5-azaspiro[2.4]heptan-5-yl)ethyl)carbamoyl)-2-methylpyridin-3-yl)-2-(1,3-dimethyl-1H-pyrazol-4-yl)pyrazolo[5,1-b]thiazole-7-carboxamide] had an IC50 of more than 7.5 µM.

In the case of `Cc1ncc(C(=O)NCCN2CC3COCC3C2)cc1NC(=O)c1cnn2cc(-c3cnn(C)c3)sc12` (stereo not shown) [Example 112, 2-(1-methyl-1H-pyrazol-4-yl)-N-(2-methyl-5-((2-(tetrahydro-1H-furo[3,4-c]pyrrol-5 (3H)-yl)ethyl)carbamoyl)pyridin-3-yl)pyrazolo[5,1-b]thiazole-7-carboxamide], the IC50 was more than 7.5 µM.

For the molecule `Cc1ncc(C(=O)NCCN2CC3CCC2CC3)cc1NC(=O)c1cnn2cc(-c3cnn(CC#N)c3)sc12` [Example 151, N-(5-((2-(2-azabicyclo[2.2.2]octan-2-yl)ethyl)carbamoyl)-2-methylpyridin-3-yl)-2-(1-(cyanomethyl)-1H-pyrazol-4-yl)pyrazolo[5,1-b]thiazole-7-carboxamide], the IC50 was more than 7.5 µM.

Molecule `Cc1ncc(C(=O)NCCN2CC3CCC2CC3)cc1NC(=O)c1cnn2cc(-c3cccnc3)sc12` [Example 149, N-(5-((2-(2-azabicyclo[2.2.2]octan-2-yl)ethyl)carbamoyl)-2-methylpyridin-3-yl)-2-(pyridin-3-yl)pyrazolo[5,1-b]thiazole-7-carboxamide] yielded an IC50 of more than 7.5 µM.

`CC(=O)Nc1cncc(-c2cn3ncc(C(=O)Nc4cc(C(=O)NCCN5CC6CCC5CC6)cnc4C)c3s2)c1` [Example 147, N-(5-((2-(2-azabicyclo[2.2.2]octan-2-yl)ethyl)carbamoyl)-2-methylpyridin-3-yl)-2-(5-acetamidopyridin-3-yl)pyrazolo[5,1-b]thiazole-7-carboxamide] showed an IC50 of more than 7.5 µM.

Values taken from patent publication US20240109917A1 (ACTELION PHARMACEUTICALS LTD, priority 2020, published 2024).
